Test results from the supplement of paper PMC10307832.

Tests used:
Assay in all cases: relative viability (nuclei count vs DMSO), 5 days (fraction); higher = more cells survive
Navitoclax = compound: CC1(C)CCC(c2ccc(Cl)cc2)=C(CN2CCN(c3ccc(C(=O)NS(=O)(=O)c4ccc(N[C@H](CCN5CCOCC5)CSc5ccccc5)c(S(=O)(=O)C(F)(F)F)c4)cc3)CC2)C1 [Navitoclax]
In short: (§1)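 Lung cancer cell lines were seeded into 1536-well plates, kept overnight at 37 °C and pinned with five library-drug doses (not always all listed) spaced by √10. After 5 days, nuclei were Hoechst-stained, imaged at 4× and counted with MetaXpress. Viability is treated-well nuclei over vehicle-well nuclei, taken as a median across plates. Plates needed control CV below 25% and at least one doubling.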

C-75 = compound: CCCCCCCC[C@H]1[C@@H](C(=C)C(=O)O1)C(=O)O [C-75]
In short: as §1

AZD7762 = compound: NC(=O)Nc1cc(-c2cccc(F)c2)sc1C(=O)N[C@H]1CCCNC1 [AZD7762]
In short: as §1

[1] = compound: O=C(O)c1ccc(-c2c[nH]c3ncc(-c4ccccc4)cc23)cc1C1CCCC1
In short: as §1

XAV939 = compound: Oc1nc(-c2ccc(C(F)(F)F)cc2)nc2c1CSCC2 [XAV939]
In short: as §1

Row | Cell Line | relative viability (Navitoclax; 0.005 µM) | relative viability (Navitoclax; 0.01581 µM) | relative viability (Navitoclax; 0.05 µM) | relative viability (Navitoclax; 0.1581 µM) | relative viability (Navitoclax; 0.5 µM) | relative viability (Navitoclax; 0.5 µM, anchor plate) | relative viability (C-75; 0.08 µM) | relative viability (C-75; 0.253 µM) | relative viability (C-75; 0.8 µM) | relative viability (C-75; 2.53 µM) | relative viability (C-75; 8 µM) | relative viability (AZD7762; 0.01 µM) | relative viability (AZD7762; 0.03162 µM) | relative viability (AZD7762; 0.1 µM) | relative viability (AZD7762; 0.3162 µM) | relative viability (AZD7762; 1 µM) | relative viability ([1]; 0.04 µM) | relative viability ([1]; 0.1265 µM) | relative viability ([1]; 0.4 µM) | relative viability ([1]; 1.265 µM) | relative viability (XAV939; 0.08 µM) | relative viability (XAV939; 0.253 µM) | relative viability (XAV939; 0.8 µM) | relative viability (XAV939; 2.53 µM) | relative viability (AZD7762; 0.2 µM, anchor plate)
1 | Calu-6 | 0.979 | 1.01 | 1.1 | 0.933 | 0.93 | 0.824 | 1.03 | 1.02 | 0.964 | 0.912 | 0.948 | 1.05 | 0.992 | 0.873 | 0.475 | 0.145 | 0.982 | 1.01 | 0.955 | 0.78 | 1.07 | 0.904 | 0.985 | 0.944 | 
2 | NCI-H1703 | 0.907 | 1.05 | 0.933 | 0.994 | 0.939 | 1.18 | 0.993 | 0.929 | 0.83 | 0.869 | 0.817 | 0.767 | 0.35 | 0.276 | 0.174 | 0.194 | 0.949 | 1.04 | 1.11 | 1.02 | 1.05 | 0.98 | 0.929 | 0.812 | 0.132
3 | COR-L23 | 0.934 | 1.16 | 1.15 | 0.974 | 0.965 | 1.01 | 0.965 | 1.04 | 0.945 | 0.778 | 1.06 | 1.1 | 0.912 | 1.17 | 0.854 | 0.231 | 0.921 | 1.01 | 0.973 | 0.723 | 1.11 | 0.92 | 1.01 | 0.928 | 
4 | NCI-H2228 | 0.965 | 1.01 |  | 0.968 | 1.11 | 0.968 | 0.969 | 1.09 | 0.952 | 0.986 | 1.06 | 1.17 | 0.982 | 0.997 | 0.649 | 0.361 | 0.942 | 1.09 | 0.924 | 0.639 | 1.01 | 0.811 | 0.921 | 0.88 | 
5 | NCI-H2342 | 1.01 | 0.999 | 0.938 | 0.961 | 1.01 |  | 0.924 | 0.988 | 0.833 | 0.857 | 1.04 | 0.903 | 1.1 | 0.983 | 0.997 | 1.04 | 0.943 | 0.985 | 0.979 | 1.1 | 1.04 | 0.794 | 0.781 | 0.508 | 0.514
6 | NCI-H2009 | 0.964 | 1.14 | 1.02 | 1.04 | 1.04 | 1.16 | 0.999 | 0.991 | 0.911 | 0.81 | 0.905 | 1.07 | 0.994 | 1.1 | 1 | 0.834 | 1.01 | 1.01 | 0.963 | 0.762 | 1.12 | 0.996 | 0.924 | 0.899 | 
7 | NCI-H1395 | 0.998 | 0.943 | 0.922 | 0.905 | 1 | 1.25 | 0.828 | 0.893 | 0.794 | 0.788 | 1.04 | 0.931 | 1.11 | 1.06 | 0.461 | 0.408 | 0.94 | 1.01 | 0.893 | 0.837 | 0.918 | 0.903 | 0.88 | 0.972 | 0.398
8 | NCI-H1651 | 0.989 | 1 | 0.802 | 0.942 | 1 | 1.06 | 0.956 | 1.02 | 0.952 | 0.935 | 0.969 | 1.02 | 0.98 | 1.03 | 0.956 | 0.531 | 0.931 | 1.08 | 0.968 | 0.784 | 1 | 0.85 | 0.943 | 1 | 0.495
9 | HCC-827 | 1.07 | 1.12 | 0.953 | 1.04 | 1.05 | 1.02 | 1.01 | 0.953 | 1.01 | 0.976 | 1.07 | 1.05 | 1.08 | 1.08 | 1.1 | 0.731 | 0.96 | 1.07 | 0.993 | 0.863 | 1.04 | 1.06 | 0.991 | 1.02 | 0.23
10 | LOU-NH91 | 1.01 | 1 | 0.921 | 0.865 | 0.513 | 0.718 | 0.959 | 0.977 | 0.862 | 0.778 | 0.969 | 0.941 | 1.1 | 0.975 | 0.894 | 0.775 | 0.934 | 1.14 | 0.975 | 0.915 | 0.979 | 0.868 | 0.954 | 0.953 | 0.784
11 | NCI-H1650 | 0.896 | 1.16 | 0.97 | 1.01 | 0.857 | 1.2 | 0.925 | 0.984 | 0.927 | 0.976 | 1.09 | 0.96 | 0.929 | 0.95 | 0.627 | 0.267 | 0.891 | 1.08 | 0.985 | 0.716 | 0.955 | 0.844 | 0.888 | 0.616 | 
12 | PC-14 | 1 | 1.16 | 1.05 | 0.981 | 0.956 | 1.01 | 0.939 | 0.86 | 0.902 | 0.927 | 1 | 1.03 | 0.995 | 0.931 | 0.562 | 0.368 | 0.956 | 1.12 | 1 | 0.962 | 1.1 | 0.933 | 0.974 | 0.885 | 0.39
13 | RERF-LC-KJ | 0.973 | 0.98 | 0.961 | 1.01 | 0.997 | 0.987 | 1.02 | 1.14 | 0.981 | 0.95 | 1.06 | 0.976 | 1.03 | 1.06 | 1.04 | 0.959 | 1.02 | 0.96 | 0.985 | 0.916 | 0.968 | 0.862 | 0.859 | 0.743 | 1.03
